From ChEMBL document CHEMBL4270577, “Synthesis, anticancer activity and molecular modeling studies of 1,2,4-triazole derivatives as EGFR inhibitors” (Eur J Med Chem, 2018)

system: CCRF-CEM; assay: Growth inhibition of human CCRF-CEM cells at 10 uM incubated for 48 hrs by sulforhodamine B assay relative to control; type: functional; conditions: read-out: GI

| Structure (SMILES) | inhibition of growth at 10 µM |
| --- | --- |
| C/C(=N/O)c1ccc(NC(=O)Cn2nc(-c3ccccc3)nc2N)cc1 | 6.77% |

system: HL-60(TB); assay: Growth inhibition of human HL-60(TB) cells at 10 uM incubated for 48 hrs by sulforhodamine B assay relative to control; type: functional; conditions: HL-60, 48 h, read-out: GI

| Structure (SMILES) | inhibition of growth at 10 µM |
| --- | --- |
| C/C(=N/O)c1ccc(NC(=O)Cn2nc(-c3ccccc3)nc2N)cc1 | 7.41% |

system: MOLT-4; assay: Growth inhibition of human MOLT4 cells at 10 uM incubated for 48 hrs by sulforhodamine B assay relative to control; type: functional; conditions: MOLT-4, 48 h, read-out: GI

| Structure (SMILES) | inhibition of growth at 10 µM |
| --- | --- |
| C/C(=N/O)c1ccc(NC(=O)Cn2nc(-c3ccccc3)nc2N)cc1 | 11.5% |

system: SR; assay: Growth inhibition of human SR cells at 10 uM incubated for 48 hrs by sulforhodamine B assay relative to control; type: functional; conditions: read-out: GI

| Structure (SMILES) | inhibition of growth at 10 µM |
| --- | --- |
| C/C(=N/O)c1ccc(NC(=O)Cn2nc(-c3ccccc3)nc2N)cc1 | 5.58% |

system: A549; assay: Growth inhibition of human A549/ATCC cells at 10 uM incubated for 48 hrs by sulforhodamine B assay relative to control; type: functional; conditions: A549, 48 h, read-out: GI

| Structure (SMILES) | inhibition of growth at 10 µM |
| --- | --- |
| C/C(=N/O)c1ccc(NC(=O)Cn2nc(-c3ccccc3)nc2N)cc1 | 32% |

system: HOP-62; assay: Growth inhibition of human HOP62 cells at 10 uM incubated for 48 hrs by sulforhodamine B assay relative to control; type: functional; conditions: HOP-62, 48 h, read-out: GI

| Structure (SMILES) | inhibition of growth at 10 µM |
| --- | --- |
| C/C(=N/O)c1ccc(NC(=O)Cn2nc(-c3ccccc3)nc2N)cc1 | 17.7% |

system: HOP-92; assay: Growth inhibition of human HOP92 cells at 10 uM incubated for 48 hrs by sulforhodamine B assay relative to control; type: functional; conditions: HOP-92, 48 h, read-out: GI

| Structure (SMILES) | inhibition of growth at 10 µM |
| --- | --- |
| C/C(=N/O)c1ccc(NC(=O)Cn2nc(-c3ccccc3)nc2N)cc1 | 5.82% |

system: NCI-H226; assay: Growth inhibition of human NCI-H226 cells at 10 uM incubated for 48 hrs by sulforhodamine B assay relative to control; type: functional; conditions: NCI-H226, 48 h, read-out: GI

| Structure (SMILES) | inhibition of growth at 10 µM |
| --- | --- |
| C/C(=N/O)c1ccc(NC(=O)Cn2nc(-c3ccccc3)nc2N)cc1 | 3.91% |

system: NCI-H23; assay: Growth inhibition of human NCI-H23 cells at 10 uM incubated for 48 hrs by sulforhodamine B assay relative to control; type: functional; conditions: NCI-H23, 48 h, read-out: GI

| Structure (SMILES) | inhibition of growth at 10 µM |
| --- | --- |
| C/C(=N/O)c1ccc(NC(=O)Cn2nc(-c3ccccc3)nc2N)cc1 | 3.98% |

system: NCI-H522; assay: Growth inhibition of human NCI-H522 cells at 10 uM incubated for 48 hrs by sulforhodamine B assay relative to control; type: functional; conditions: NCI-H522, 48 h, read-out: GI

| Structure (SMILES) | inhibition of growth at 10 µM |
| --- | --- |
| C/C(=N/O)c1ccc(NC(=O)Cn2nc(-c3ccccc3)nc2N)cc1 | 30% |

system: HT-29; assay: Growth inhibition of human HT-29 cells at 10 uM incubated for 48 hrs by sulforhodamine B assay relative to control; type: functional; conditions: HT-29, 48 h, read-out: GI

| Structure (SMILES) | inhibition of growth at 10 µM |
| --- | --- |
| C/C(=N/O)c1ccc(NC(=O)Cn2nc(-c3ccccc3)nc2N)cc1 | 13.9% |

system: SNB-19; assay: Growth inhibition of human SNB19 cells at 10 uM incubated for 48 hrs by sulforhodamine B assay relative to control; type: functional; conditions: SNB-19, 48 h, read-out: GI

| Structure (SMILES) | inhibition of growth at 10 µM |
| --- | --- |
| C/C(=N/O)c1ccc(NC(=O)Cn2nc(-c3ccccc3)nc2N)cc1 | 3.56% |

system: SNB-75; assay: Growth inhibition of human SNB75 cells at 10 uM incubated for 48 hrs by sulforhodamine B assay relative to control; type: functional; conditions: SNB-75, 48 h, read-out: GI

| Structure (SMILES) | inhibition of growth at 10 µM |
| --- | --- |
| C/C(=N/O)c1ccc(NC(=O)Cn2nc(-c3ccccc3)nc2N)cc1 | 22.5% |

system: U-251; assay: Growth inhibition of human U251 cells at 10 uM incubated for 48 hrs by sulforhodamine B assay relative to control; type: functional; conditions: U-251, 48 h, read-out: GI

| Structure (SMILES) | inhibition of growth at 10 µM |
| --- | --- |
| C/C(=N/O)c1ccc(NC(=O)Cn2nc(-c3ccccc3)nc2N)cc1 | 8.76% |

system: SK-MEL-2; assay: Growth inhibition of human SK-MEL-2 cells at 10 uM incubated for 48 hrs by sulforhodamine B assay relative to control; type: functional; conditions: SK-MEL-2, 48 h, read-out: GI

| Structure (SMILES) | inhibition of growth at 10 µM |
| --- | --- |
| C/C(=N/O)c1ccc(NC(=O)Cn2nc(-c3ccccc3)nc2N)cc1 | 5.32% |

system: UACC-257; assay: Growth inhibition of human UACC257 cells at 10 uM incubated for 48 hrs by sulforhodamine B assay relative to control; type: functional; conditions: UACC-257, 48 h, read-out: GI

| Structure (SMILES) | inhibition of growth at 10 µM |
| --- | --- |
| C/C(=N/O)c1ccc(NC(=O)Cn2nc(-c3ccccc3)nc2N)cc1 | 34% |

system: OVCAR-8; assay: Growth inhibition of human OVCAR8 cells at 10 uM incubated for 48 hrs by sulforhodamine B assay relative to control; type: functional; conditions: OVCAR-8, 48 h, read-out: GI

| Structure (SMILES) | inhibition of growth at 10 µM |
| --- | --- |
| C/C(=N/O)c1ccc(NC(=O)Cn2nc(-c3ccccc3)nc2N)cc1 | 15.3% |

system: SK-OV-3; assay: Growth inhibition of human SKOV3 cells at 10 uM incubated for 48 hrs by sulforhodamine B assay relative to control; type: functional; conditions: SK-OV-3, 48 h, read-out: GI

| Structure (SMILES) | inhibition of growth at 10 µM |
| --- | --- |
| C/C(=N/O)c1ccc(NC(=O)Cn2nc(-c3ccccc3)nc2N)cc1 | 15.2% |

system: A498; assay: Growth inhibition of human A498 cells at 10 uM incubated for 48 hrs by sulforhodamine B assay relative to control; type: functional; conditions: A498, 48 h, read-out: GI

| Structure (SMILES) | inhibition of growth at 10 µM |
| --- | --- |
| C/C(=N/O)c1ccc(NC(=O)Cn2nc(-c3ccccc3)nc2N)cc1 | 19.6% |

system: UO-31; assay: Growth inhibition of human UO31 cells at 10 uM incubated for 48 hrs by sulforhodamine B assay relative to control; type: functional; conditions: UO-31, 48 h, read-out: GI

| Structure (SMILES) | inhibition of growth at 10 µM |
| --- | --- |
| C/C(=N/O)c1ccc(NC(=O)Cn2nc(-c3ccccc3)nc2N)cc1 | 15.4% |

system: PC-3; assay: Growth inhibition of human PC3 cells at 10 uM incubated for 48 hrs by sulforhodamine B assay relative to control; type: functional; conditions: PC-3, 48 h, read-out: GI

| Structure (SMILES) | inhibition of growth at 10 µM |
| --- | --- |
| C/C(=N/O)c1ccc(NC(=O)Cn2nc(-c3ccccc3)nc2N)cc1 | 15.8% |

system: Hs-578T; assay: Growth inhibition of human Hs 578T cells at 10 uM incubated for 48 hrs by sulforhodamine B assay relative to control; type: functional; conditions: read-out: GI

| Structure (SMILES) | inhibition of growth at 10 µM |
| --- | --- |
| C/C(=N/O)c1ccc(NC(=O)Cn2nc(-c3ccccc3)nc2N)cc1 | 7.41% |

system: T47D; assay: Growth inhibition of human T47D cells at 10 uM incubated for 48 hrs by sulforhodamine B assay relative to control; type: functional; conditions: read-out: GI

| Structure (SMILES) | inhibition of growth at 10 µM |
| --- | --- |
| C/C(=N/O)c1ccc(NC(=O)Cn2nc(-c3ccccc3)nc2N)cc1 | 23% |

system: PANC-1; assay: Antiproliferative activity against human PANC1 cells after 48 hrs by propidium iodide staining-based fluorometric analysis; type: functional, cell-based; conditions: PANC-1, 48 h

| Structure (SMILES) | IC50 |
| --- | --- |
| C/C(=N/O)c1ccc(NC(=O)Cn2nc(-c3ccccc3)nc2N)cc1 | 8.7 µM |

system: MIA PaCa-2; assay: Antiproliferative activity against human MIAPaCa2 cells after 48 hrs by propidium iodide staining-based fluorometric analysis; type: functional, cell-based; conditions: MIA PaCa-2, 48 h

| Structure (SMILES) | IC50 |
| --- | --- |
| C/C(=N/O)c1ccc(NC(=O)Cn2nc(-c3ccccc3)nc2N)cc1 | 5.7 µM |

system: HT-29; assay: Antiproliferative activity against human HT-29 cells after 48 hrs by propidium iodide staining-based fluorometric analysis; type: functional, cell-based; conditions: HT-29, 48 h

| Structure (SMILES) | IC50 |
| --- | --- |
| C/C(=N/O)c1ccc(NC(=O)Cn2nc(-c3ccccc3)nc2N)cc1 | 4.7 µM |

system: NCI-H460; assay: Antiproliferative activity against human H460 cells after 48 hrs by propidium iodide staining-based fluorometric analysis; type: functional, cell-based; conditions: NCI-H460, 48 h

| Structure (SMILES) | IC50 |
| --- | --- |
| C/C(=N/O)c1ccc(NC(=O)Cn2nc(-c3ccccc3)nc2N)cc1 | 4.4 µM |
